Experiment [1] has as its system Pituitary gland cell. Description: In vitro ability of the compound (peptide) to stimulate ACTH release by rat anterior pituitary cells in relative to Ovine corticotropin releasing factor (oCRF) in experiment 2. Type of experiment: cell-based. The arrangement: unit not given here.
For experiment [2], the system named is Pituitary gland cell. Kind of experiment: In vitro ability of the compound (peptide) to stimulate ACTH release by rat anterior pituitary cells in relative to Ovine corticotropin releasing factor (oCRF) in experiment 1. The class given is cell-based. Set-up: unit not given here.

On to “H-SQEPPISLDLTFHLLREVLEMTKADQLAAQAHSNRKLLDIA-NH2”, for which the figures for the Relative potency with Pituitary gland cell [1] and with Pituitary gland cell [2] were 1.4 and 1, respectively.

Take `CC[C@H](C)[C@H](NC(=O)[C@H](CC(=O)O)NC(=O)[C@H](CC(C)C)NC(=O)[C@H](CC(C)C)NC(=O)[C@H](CCCCN)NC(=O)[C@H](CCCN=C(N)N)NC(=O)[C@H](CC(N)=O)NC(=O)[C@H](CO)NC(=O)[C@H](Cc1c[nH]cn1)NC(=O)[C@H](C)NC(=O)[C@H](CCC(N)=O)NC(=O)[C@H](CCC(N)=O)NC(=O)[C@H](C)NC(=O)[C@H](CC(C)C)NC(=O)[C@H](CCC(N)=O)NC(=O)[C@H](CC(=O)O)NC(=O)[C@H](C)NC(=O)[C@H](CCCCN)NC(=O)[C@@H](NC(=O)[C@H](CCSC)NC(=O)[C@H](CCC(=O)O)NC(=O)[C@H](CC(C)C)NC(=O)[C@@H](NC(=O)[C@H](CCC(=O)O)NC(=O)[C@H](CCCN=C(N)N)NC(=O)[C@H](CC(C)C)NC(=O)[C@H](CC(C)C)NC(=O)[C@H](Cc1c[nH]cn1)NC(=O)[C@H](Cc1ccccc1)NC(=O)[C@@H](NC(=O)[C@H](CC(C)C)NC(=O)[C@H](CC(=O)O)NC(=O)[C@H](CC(C)C)NC(=O)[C@H](C)NC(=O)[C@@H](NC(=O)[C@@H]1CCCN1C(=O)[C@@H]1CCCN1C(=O)[C@H](CCC(=O)O)NC(=O)[C@H](CCC(N)=O)NC(=O)[C@@H](N)CO)[C@@H](C)CC)[C@@H](C)O)C(C)C)[C@@H](C)O)C(=O)N[C@@H](C)C(N)=O`: the Relative potency with Pituitary gland cell [1] amounted to 0.21; with Pituitary gland cell [2], 0.16.

For the compound “H-SQEPPISLDLTFHLLREVLEMTKADQLAQQAHSNRKLADIA-NH2”, the Relative potency in the experiment on Pituitary gland cell [1] was determined as 0.0002; with Pituitary gland cell [2], 0.004.

With `CC[C@H](C)[C@H](NC(=O)[C@H](CC(=O)O)NC(=O)[C@H](CC(C)C)NC(=O)[C@H](CC(C)C)NC(=O)[C@H](CCCCN)NC(=O)[C@H](CCCN=C(N)N)NC(=O)[C@H](CC(N)=O)NC(=O)[C@H](CO)NC(=O)[C@H](Cc1c[nH]cn1)NC(=O)[C@H](C)NC(=O)[C@H](CCC(N)=O)NC(=O)[C@H](CCC(N)=O)NC(=O)[C@H](C)NC(=O)[C@H](CC(C)C)NC(=O)[C@H](CCC(N)=O)NC(=O)[C@H](CC(=O)O)NC(=O)[C@H](C)NC(=O)[C@H](CCCCN)NC(=O)[C@@H](NC(=O)[C@H](CCSC)NC(=O)[C@H](CCC(=O)O)NC(=O)[C@H](CC(C)C)NC(=O)[C@@H](NC(=O)[C@H](CCC(=O)O)NC(=O)[C@H](CCCN=C(N)N)NC(=O)[C@H](CC(C)C)NC(=O)[C@H](CC(C)C)NC(=O)[C@H](Cc1c[nH]cn1)NC(=O)[C@H](Cc1ccccc1)NC(=O)[C@@H](NC(=O)[C@H](CC(C)C)NC(=O)[C@H](CC(=O)O)NC(=O)[C@H](C)NC(=O)[C@H](CO)NC(=O)[C@@H](NC(=O)[C@@H]1CCCN1C(=O)[C@@H]1CCCN1C(=O)[C@H](CCC(=O)O)NC(=O)[C@H](CCC(N)=O)NC(=O)[C@@H](N)CO)[C@@H](C)CC)[C@@H](C)O)C(C)C)[C@@H](C)O)C(=O)N[C@@H](C)C(N)=O`, the Relative potency in the experiment with Pituitary gland cell [1] was found to be 0.005; in the experiment on Pituitary gland cell [2], 0.03.

As to “H-SQEPPISLDLTFHALREVLEMTKADQLAQQAHSNRKLLDIA-NH2”, the Relative potency in the experiment with Pituitary gland cell [1] and in the experiment on Pituitary gland cell [2] was 0.001 throughout.

As for “H-SQEPPISLDLTFHLLREVLAMTKADQLAQQAHSNRKLLDIA-NH2”, the Relative potency stood at 1.6 in the experiment on Pituitary gland cell [1] and 2.8 with Pituitary gland cell [2].

The values are drawn from ChEMBL document CHEMBL1126045, “Alanine series of ovine corticotropin releasing factor (oCRF): a structure-activity relationship study” (J Med Chem, 1992).
